Where “and” joins values, the source holds several entries; their conditions need not be identical. Identical values can stand only once. Like-named read-outs stand apart in the source and are kept apart here.
What was measured:
CCL2 wild-type [1] = molecular target: T1, CCL2 wild-type (Coprinopsis cinerea, UniProt B3GA02); type: binding
CCL1 = assay: Glycan array analysis of CCL1 (CFG mammalian glycan array V4.2); type: binding, Coprinopsis cinerea; conditions: Alexa Fluor 488 labeled CCL1 200 µg/ml, array V4.2, average of triplicates
Procedure: (§1) Purified CCL1 and CCL2 were fluorescently labeled with Alexa Fluor 488 (Invitrogen) according to the manufacturer's protocol and used (at a final concentration of 200 µg/ml) to probe versions 4.2 and 3.1, respectively, of the mammalian glycan array offered by Core H of the Consortium for Functional Glycomics (CFG).

CCL2 = assay: Glycan array analysis of CCL2 (CFG mammalian glycan array V3.1); type: binding, Coprinopsis cinerea; conditions: for RFU (relative fluorescence units): Alexa Fluor 488 labeled CCL2 200 µg/ml, array V3.1, average of triplicates; for binding on glycan array (in words): fluorescently labeled CCL2 200 µg/ml, array V3.1
Procedure: as §1

Calreticulin = assay: Literature thermodynamic binding data of lectin-carbohydrate interactions compiled in Table S6 for comparison; conditions not given; parameters: method as in values quoted from other papers; conditions: read-out: KD [μmol]; cited from earlier work
[2] = parameters: method as in ref 5 of Table S6 (Turnbull et al. 2004); conditions: ligand GM1os; ref 5 of Table S6 (Turnbull et al. 2004); cited from earlier work
CCL2 wild-type [3] = molecular target: T1, CCL2 wild-type; type: binding; remark: listed apart in the source
MOA = assay: Literature thermodynamic binding data of lectin-carbohydrate interactions compiled in Table S6 for comparison; conditions not given; parameters: method as in values quoted from other papers; conditions: read-out: KD [μmol]; cited from earlier work
RSL = type: binding; conditions: read-out: KD [μmol]; cited from earlier work
CCL2 (Wild type) = molecular target: T2, CCL2 (Wild type) (Coprinopsis cinerea, UniProt B3GA02); assay: biochemical; type: binding
T2 construct: recombinant from E. coli, eight N-terminal His-residues (His8), monomer
T2 sequence (B3GA02 2-142): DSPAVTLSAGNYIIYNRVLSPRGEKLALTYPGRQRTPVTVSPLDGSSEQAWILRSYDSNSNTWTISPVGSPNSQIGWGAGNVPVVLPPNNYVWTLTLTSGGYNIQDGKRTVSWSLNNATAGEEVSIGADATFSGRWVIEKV

[4] = ligand Glc1,3Man1,2Man1,2Man; ref 2 of Table S6 (Kozlov et al. 2010); cited from earlier work
[5] = parameters: method as in ref 3 of Table S6 (Gupta et al. 2008); conditions: ligand Glc1,3Man1,2ManOMe; ref 3 of Table S6 (Gupta et al. 2008); cited from earlier work
[6] = carbohydrate titrated to CCL2 wild-type

T1 sequence (B3GA02 2-142 limits assumed): as the sequence (B3GA02 2-142) above

Compound: Neu5Acα2,3Galβ1,4Glc
- NMR titration (CCL2 wild-type [1]; [6]): no binding

Compound: [4OSO3][6OSO3]Gal1-4GlcNAc-Sp0
- RFU (relative fluorescence units) (CCL1): 5 RFU
- RFU (relative fluorescence units) (CCL2): 222.7 RFU

Compound: CO[C@H]1O[C@H](CO)[C@@H](O)[C@H](O)[C@@H]1O[C@H]1O[C@H](CO)[C@@H](O)[C@H](O[C@H]2O[C@H](CO)[C@@H](O)[C@H](O)[C@H]2O)[C@@H]1O [Glc1,3Man1,2ManOMe, Glcα1,3Manα1,2Manα-OMe (methyl glycoside)]
- Kd (Calreticulin): 1800 nM

Compound: CC(=O)NC1C(OC2C(CO)OC(O)C(O)C2O)OC(CO)C(OC2OC(CO)C(O)C(O)C2O)C1OC1OC(C)C(O)C(O)C1O (stereo not drawn) [Galβ1,4[Fucα1,3]GlcNAcβ1,4Gal]
- NMR titration (CCL2 wild-type [1]): large chemical shift deviations, slow to intermediate exchange

Compound: Cholera toxin B subunit (CTB): cholera-toxin B subdomain
- –TΔS [2]: 7.36 kcal/mol
- –ΔH [2]: 17.3 kcal/mol

Compound: CO[C@@H]1O[C@H](CO)[C@@H](O[C@@H]2O[C@H](CO)[C@H](O)[C@H](O)[C@H]2O)[C@H](O[C@@H]2O[C@@H](C)[C@@H](O)[C@@H](O)[C@@H]2O)[C@H]1NC(C)=O [Galβ1,4[Fucα1,3]GlcNAcβ1-OMe]
- drop in affinity (CCL2 wild-type [3]): ~300 fold

Compound: Man1-3(Man1-6)Man1-4GlcNAc1-4GlcNAc-Sp13
- RFU (relative fluorescence units) (CCL1): 116 RFU
- RFU (relative fluorescence units) (CCL2): 525.3 RFU

Compound: C[C@@H]1O[C@@H](O[C@H]2C(O)O[C@H](CO)[C@H](O)[C@@H]2O[C@H]2O[C@H](CO)[C@H](O)[C@H](O)[C@H]2O)[C@@H](O)[C@H](O)[C@@H]1O (stereo partly drawn) [Galα1,3[Fucα1,2]Gal, blood group B trisaccharide]
- Kd (MOA): 36000 nM

Compound: [6OSO3]Gal1-4[6OSO3]Glc-Sp8
- RFU (relative fluorescence units) (CCL1): 20 RFU
- RFU (relative fluorescence units) (CCL2): 298.1 RFU

Compound: CO[C@@H]1O[C@H](CO)[C@@H](O)[C@H](O[C@@H]2O[C@@H](C)[C@@H](O)[C@@H](O)[C@@H]2O)[C@H]1NC(C)=O [Fucα1,3GlcNAc-OMe]
- NMR titration (CCL2 wild-type [1]): no binding

Compound: 6-H2PO3Man-Sp8
- RFU (relative fluorescence units) (CCL1): 3 RFU
- RFU (relative fluorescence units) (CCL2): 118.9 RFU

Compound: CC(=O)N[C@H]1C(O)O[C@H](CO)[C@@H](O[C@@H]2O[C@H](CO)[C@H](O)[C@H](O[C@H]3O[C@H](CO)[C@H](O)[C@H](O)[C@H]3O)[C@H]2O)[C@@H]1O (stereo partly drawn) [Gal1,3Gal1,4GlcNAc, Galα1,3Galβ1,4GlcNAc]
- Kd (MOA): 42300 nM

Compound: [3OSO3]Gal1-4[6OSO3]GlcNAc-Sp8
- RFU (relative fluorescence units) (CCL1): 333 RFU
- RFU (relative fluorescence units) (CCL2): 101.0 RFU

Compound: CC(=O)N[C@H]1[C@H](O[C@H]2[C@H](O[C@@H]3O[C@@H](C)[C@@H](O)[C@@H](O)[C@@H]3O)[C@@H](NC(C)=O)C(O)O[C@@H]2CO)O[C@H](CO)[C@H](O)[C@@H]1O (stereo partly drawn) [fucosylated LacdiNAc, GalNAcβ1,4[Fucα1,3]GlcNAc]
- binding on glycan array (in words) (CCL2): binds
- binding on glycan array (in words) (CCL2; listed as GalNAcβ1,4[Fucα1,3]GlcNAc): one of the best binders

Compound: -Neu5Ac–Sp8
- RFU (relative fluorescence units) (CCL2): 247.4 RFU

Compound: GlcNAc1-3(GlcNAc1-4)(GlcNAc1-6)GlcNAc-Sp8
- RFU (relative fluorescence units) (CCL1): 264 RFU
- RFU (relative fluorescence units) (CCL2): 103.1 RFU

Compound: NCCCO[C@@H]1O[C@H](CO)[C@@H](O)[C@H](O)[C@H]1NC(=O)CO [-GlcN(Gc)-Sp8, -GlcN(Gc)- Sp8]
- RFU (relative fluorescence units) (CCL2): 136.2 RFU

Compound: Neu5Ac2-6Gal1-4GlcNAc1-2Man1-3(Neu5Ac2-6Gal1-4GlcNAc1-2Man1-6)Man1-4GlcNAc1-4GlcNAc-Sp12
- RFU (relative fluorescence units) (CCL1): 122 RFU
- RFU (relative fluorescence units) (CCL2): 183.9 RFU

Compound: CO[C@@H]1O[C@@H](C)[C@@H](O)[C@@H](O)[C@@H]1O [FucOMe, methyl fucopyranoside]
- Kd (RSL): 730 nM

Compound: CO[C@@H]1O[C@H](CO)[C@@H](O[C@@H]2O[C@H](CO)[C@H](O)[C@H](O)[C@H]2O)[C@H](O[C@@H]2O[C@@H](C)[C@@H](O)[C@@H](O)[C@@H]2O)[C@H]1NC(C)=O [Galβ1,4[Fucα1,3]GlcNAcβ1-OMe, Lewis X trisaccharide methyl glycoside]
- Kd (CCL2 (Wild type)): 456000 nM

Compound: -Neu5Ac-Sp8
- RFU (relative fluorescence units) (CCL2): 122.4 RFU

Compound: Calreticulin
- –TΔS [4]: 3.75 kcal/mol
- –ΔH [4]: 12 kcal/mol
- –TΔS [5]: -0.813 kcal/mol
- –ΔH [5]: 7.15 kcal/mol

Compound: CC(=O)N[C@H]1[C@H](OCCN)O[C@H](CO)[C@@H](O)[C@@H]1O [-GlcNAc–Sp0]
- RFU (relative fluorescence units) (CCL2): 172.7 RFU

Compound: C[C@@H]1O[C@@H](O[C@H]2[C@H](O[C@H]3[C@H](O)[C@@H](O)C(O)O[C@@H]3CO)O[C@H](CO)[C@H](O)[C@@H]2O)[C@@H](O)[C@H](O)[C@@H]1O (stereo partly drawn) [2-Fucosyllactose, 2'-fucosyllactose]
- Kd (RSL): 250 nM

Compound: Neu5Gc2-6Gal1-4GlcNAc-Sp8
- RFU (relative fluorescence units) (CCL2): 182.6 RFU

Compound: OC[C@H]1O[C@H](O[C@@H]2[C@H](O)[C@@H](O[C@@H]3[C@@H](O[C@@H]4C(O)O[C@H](CO)[C@@H](O)[C@@H]4O)O[C@H](CO)[C@@H](O)[C@@H]3O)O[C@H](CO)[C@H]2O)[C@H](O)[C@@H](O)[C@@H]1O (stereo partly drawn) [Glcα1,3Manα1,2Manα1,2Man, Glcα1,3Manα1,2Manα1,2Man tetrasaccharide]
- Kd (Calreticulin): 770 nM

Compound: [6OSO3]Gal1-4Glc–Sp0
- RFU (relative fluorescence units) (CCL2): 307.4 RFU

Compound: [3OSO3]Gal1-4GlcNAc-Sp8
- RFU (relative fluorescence units) (CCL1): 110 RFU
- RFU (relative fluorescence units) (CCL2): 110.8 RFU

Compound: GlcNAc1-2Man1-3(GlcNAc1-2Man1-6)Man1-4GlcNAc1-4GlcNAc-Sp13
- RFU (relative fluorescence units) (CCL1): 68 RFU
- RFU (relative fluorescence units) (CCL2): 674.3 RFU

Compound: -Neu5Ac–Sp11
- RFU (relative fluorescence units) (CCL2): 119.3 RFU

Compound: [3OSO3][6OSO3]Gal1-4[6OSO3]GlcNAc-Sp0
- RFU (relative fluorescence units) (CCL1): 3 RFU
- RFU (relative fluorescence units) (CCL2): 367.7 RFU

Compound: CC(=O)N[C@H]1[C@H](O[C@H]2[C@H](O[C@@H]3O[C@@H](C)[C@@H](O)[C@@H](O)[C@@H]3O)[C@@H](NC(C)=O)[C@H](OCCCCCC(=O)O)O[C@@H]2CO)O[C@H](CO)[C@@H](O)[C@@H]1O [GlcNAcβ1,4[Fucα1,3]GlcNAcβ1-sp, GlcNAcβ1,4[Fucα1,3]GlcNAcβ-O(CH2)5COONa]
- ΔH (CCL2 wild-type [3]): -11.9 kcal/mol
- −TΔS (CCL2 wild-type [3]): 3.9 kcal/mol
- NMR titration (CCL2 wild-type [1]; [6]): large chemical shift deviations, slow exchange

Compound: [3OSO3]Gal1-3GlcNAc–Sp8
- RFU (relative fluorescence units) (CCL2): 403.9 RFU

Compound: [3OSO3]Gal1-3GalNAc-Sp8
- RFU (relative fluorescence units) (CCL1): 118 RFU
- RFU (relative fluorescence units) (CCL2): 216.8 RFU

Compound: [3OSO3][6OSO3]Gal1-4GlcNAc-Sp0
- RFU (relative fluorescence units) (CCL1): 25 RFU
- RFU (relative fluorescence units) (CCL2): 193.4 RFU

Compound: Neu5Ac2-8Neu5Ac2-8Neu5AcSp8
- RFU (relative fluorescence units) (CCL2): 66.6 RFU

Compound: 9NAcNeu5Ac2-6Gal1-4GlcNAc-Sp8
- RFU (relative fluorescence units) (CCL2): 239.4 RFU

Compound: CC(=O)N[C@H]1C(O)O[C@H](CO)[C@@H](O)[C@@H]1O[C@@H]1O[C@@H](C)[C@@H](O)[C@@H](O)[C@@H]1O (stereo partly drawn) [Fucα1,3GlcNAc]
- binding on glycan array (in words) (CCL2): very low fluorescence

Compound: CO[C@@H]1O[C@H](CO)[C@@H](O)[C@H](O[C@@H]2O[C@@H](C)[C@@H](O)[C@@H](O)[C@@H]2O)[C@H]1NC(C)=O [Fucα1,3GlcNAc-OMe, Fucα1,3GlcNAc methyl glycoside]
- Kd (CCL2 (Wild type)): > 500000 nM

Compound: [4OSO3]Gal1-4GlcNAc-Sp8
- RFU (relative fluorescence units) (CCL1): 17 RFU
- RFU (relative fluorescence units) (CCL2): 350.4 RFU

Compound: [3OSO3]Gal–Sp8
- RFU (relative fluorescence units) (CCL2): 75.5 RFU

Compound: -GlcNAc–Sp8
- RFU (relative fluorescence units) (CCL2): 160.7 RFU

Compound: C[C@@H]1O[C@@H](OCCCN)[C@@H](O)[C@H](O)[C@@H]1O [-L-Fuc–Sp8]
- RFU (relative fluorescence units) (CCL2): 416.6 RFU

Compound: Neu5Ac2-8Neu5Ac-Sp17
- RFU (relative fluorescence units) (CCL2): 155.0 RFU

Compound: NeuAc2-3[6OSO3]Gal1-4GlcNAc–Sp8
- RFU (relative fluorescence units) (CCL2): 40316.6 RFU

Compound: -GalNAc–Sp8
- RFU (relative fluorescence units) (CCL2): 151.8 RFU and 273.6 RFU

Compound: [6OSO3]GlcNAc–Sp8
- RFU (relative fluorescence units) (CCL2): 141.7 RFU

Compound: [3OSO3]Gal1-4Glc-Sp8
- RFU (relative fluorescence units) (CCL1): 29 RFU
- RFU (relative fluorescence units) (CCL2): 152.3 RFU
